Source: US6620831B2, “Indazoles substituted with 1,1-dioxoisothiazolidine useful as inhibitors of cell proliferation” (LG Life Sciences Ltd., priority 2000, dated 2003)

Biological target: T1, CDK2/cyclin A (Homo sapiens, UniProt P24941)
T1 construct: made in house; host or cells: insect ('worm') cells co-infected with baculoviruses
Assay: CDK2 inhibitory activity (CDK2/cyclin A, [gamma-32P] ATP, histon H1 or Rb protein substrate)
Assay type: biochemical
Settings: first IC50 column (c1) of Table 1
Text: CDK2 enzyme was obtained from either extract from the worm cell co-infected with baculovirus which expresses a CDK2 gene and baculovirus which expresses a cyclin A gene, or active enzyme purified therefrom. CDK4 was also obtained from either extract from the worm cell co-infected with baculovirus which expresses a CDK4 gene and baculovirus which expresses a cyclin D1 gene. As substrates, histon H1 or Rb protein was used for CDK2, and Rb protein for CDK4. The radioactive activities in substrates were determined by reacting compounds diluted with each concentration with a proper quantity of CDK2/cyclin A or CDK4/cyclin D1 and substrate protein, and [gamma-32P labeled] ATP, and then separating the substrates.
Inhibitory abilities of inhibitors according to the present invention for each enzyme activity were expressed as IC50 values, which were determined in accordance with the method as described above.

Structure (SMILES)	IC50
O=C(Cc1csc(NCc2ccc(OCc3ccccc3)cc2)n1)Nc1n[nH]c2ccc(N3CCCS3(=O)=O)cc12 [Compound 77, 2-(2-[4-(benzyloxy)benzyl]amino-1,3-thiazol-4-yl)-N-[5-(1,1-dioxo-1λ^6-isothiazolidin-2-yl)-1H-indazol-3-yl]acetamide]	< 10000 nM
CNc1ccc(CC(=O)Nc2n[nH]c3ccc(N4CCCS4(=O)=O)cc23)cc1 [Compound 6, N-[5-(1,1-dioxo-1λ^6-isothiazolidin-2-yl)-1H-indazol-3-yl]-2-[4-(methylamino)phenyl]acetamide]	< 50 nM
O=C(CCc1ccccc1)Nc1n[nH]c2ccc(N3CCCS3(=O)=O)cc12 [Compound 25, N-[5-(1,1-dioxo-1λ^6-isothiazolidin-2-yl)-1H-indazol-3-yl]-3-phenylpropanamide]	< 1000 nM
CC(=NO)Nc1n[nH]c2ccc(N3CCCS3(=O)=O)cc12 [Compound 23, N-[5-(1,1-dioxo-1λ^6-isothiazolidin-2-yl)-1H-indazol-3-yl]-N′-hydroxyethaneimidoamide]	< 100000 nM
O=C(Cc1ccc([N+](=O)[O-])cc1)Nc1n[nH]c2ccc(N3CCCS3(=O)=O)cc12 [Compound 45, N-[5-(1,1-dioxo-1λ^6-isothiazolidin-2-yl)-1H-indazol-3-yl]-2-(4-nitrophenyl)acetamide]	< 50 nM
O=C(Cc1cccc([N+](=O)[O-])c1)Nc1n[nH]c2ccc(N3CCCS3(=O)=O)cc12 [Compound 18, N-[5-(1,1-dioxo-1λ^6-isothiazolidin-2-yl)-1H-indazol-3-yl]-2-(3-nitrophenyl)acetamide]	< 50 nM

Second part, the molecule after the results:

IC50	Structure (SMILES)
< 1000 nM	CN1CCN(S(=O)(=O)c2ccc(CC(=O)Nc3n[nH]c4ccc(N5CCCS5(=O)=O)cc34)cc2)CC1 [Compound 40, N-[5-(1,1-dioxo-1λ^6-isothiazolidin-2-yl)-1H-indazol-3-yl]-2-4-[(4-methyl-1-piperazinyl)sulfonyl]phenylacetamide]
< 10000 nM	CC(=O)c1ccc(N2CCN(CC(=O)Nc3n[nH]c4ccc(N5CCCS5(=O)=O)cc34)CC2)cc1 [Compound 53, 2-[4-(4-acetylphenyl)-1-piperazinyl]-N-[5-(1,1-dioxo-1λ^6-isothiazolidin-2-yl)-1H-indazol-3-yl]acetamide]
< 50 nM	O=C(Cc1ccc(-c2ccncc2)cc1)Nc1n[nH]c2ccc(N3CCCS3(=O)=O)cc12 [Compound 33, N-[5-(1,1-dioxo-1λ^6-isothiazolidin-2-yl)-1H-indazol-3-yl]-2-[4-(4-pyridinyl)phenyl]acetamide]
< 50 nM	O=C(Cc1ccccc1)Nc1n[nH]c2ccc(N3CCCS3(=O)=O)cc12 [Compound 1, N-[5-(1,1-dioxo-1λ^6-isothiazolidin-2-yl)-1H-indazol-3-yl]-2-phenylacetamide]
< 50 nM	O=C(Cc1ccc2ccccc2c1)Nc1n[nH]c2ccc(N3CCCS3(=O)=O)cc12 [Compound 17, N-[5-(1,1-dioxo-1λ^6-isothiazolidin-2-yl)-1H-indazol-3-yl]-2-(2-naphthyl)acetamide]
< 50 nM	CCOc1ccc(CC(=O)Nc2n[nH]c3ccc(N4CCCS4(=O)=O)cc23)cc1 [Compound 42, N-[5-(1,1-dioxo-1λ^6-isothiazolidin-2-yl)-1H-indazol-3-yl]-2-(4-ethoxyphenyl)acetamide]
< 50 nM	O=C(Cn1cnc(-c2ccc3ccccc3c2)c1)Nc1n[nH]c2ccc(N3CCCS3(=O)=O)cc12 [Compound 62, N-[5-(1,1-dioxo-1λ^6-isothiazolidin-2-yl)-1H-indazol-3-yl]-2-[4-(2-naphthyl)-1H-imidazol-1-yl]acetamide]
< 100 nM	O=C(Cc1ccc(S(=O)(=O)N2CCOCC2)cc1)Nc1n[nH]c2ccc(N3CCCS3(=O)=O)cc12 [Compound 37, N-[5-(1,1-dioxo-1λ^6-isothiazolidin-2-yl)-1H-indazol-3-yl]-2-[4-(4-morpholinylsulfonyl)phenyl]acetamide]
